The subject of data set [1] is 4T1-luc2 cells. Put plainly: In vitro MTS viability assay. It is filed as cell-based. The note with it: Mus musculus, 24 h, 4T1 cells, read-out: IC50 of induced cell death. Here is the method:
4T1-luc2 cells were plated in a 96-well plate (Costar) in 100 μl medium at a density of 10,000 cells per well and left over night to adhere. The next day, the medium was replaced with medium containing the experimental compounds: HQ4, HQ4-DTPA, HQ5, and Gambogic acid (GA), three wells per condition. After 24 h, cell viability was measured using a nonradioactive colorimetric MTS viability assay (Promega Benelux) according to the manufacturer’s protocol. Optical absorption was measured at 490 nm with a Versamax absorbance microplate reader (Molecular Devices).
Supplementary Figure 3: MTS cell viability assay of various agents.
Confluent cultures of 4T1 cells were incubated for 24hr with various concentrations HQ4, HQ4-DTPA, HQ5 or the natural anti-cancer compound Gambogic Acid (GA). Relative cell viability (%) was expressed as a percentage relative to the untreated control.
GA induced cell death with an IC50 of around 6µM.
(§1) (1 picture or pasted object on this page, not shown here)
For orientation: Tetrazolium assays rely on reduction of a dye to a coloured formazan, in cell work by metabolically active cells.

Data set [2] has as its system 4T1-luc2 cells. Briefly: Dry ice dead cell assay (cryo-induced cell death), fluorescence and radioactivity read-out. It counts as cell-based, mouse. The note with it: 100 nM, 15 min incubation, 4T1 cells; for accumulation in the dead cells area by radioactivity (RA) measurement: phosphor imaging. On the procedure:
In vitro, cell death was studied using a cryo-induced cell death assay as previously described. In short, 4T1-luc2 cells were seeded onto 24-well tissue culture plates (Sigma-Aldrich) and grown until confluent. After discarding the medium, a bar of dry ice 3–5 mm in diameter was applied to the underside of the culture well for 20 s. Subsequently, the cells were incubated in the dark for 15 min at RT with HQ4 at a concentration of 100 nM. After incubation, the samples were gently washed with phosphate-buffered saline (PBS) and subsequently scanned for fluorescence using the Odyssey Infrared Imager 9120 (LI-COR) and for radioactivity via phosphor imaging on the Typhoon 9410 imager (GE Healthcare).
Fig. 2 In vitro necrosis avid properties of [^111In]DTPA-HQ4 by fluorescence and radioactivity measurements. a Necrotic cell death in confluent monolayers of 4T1 mouse breast cancer cells was induced by applying dry ice to the underside of the culture well. Cells were subsequently incubated for 15 min with one of the following: HQ4, HQ4-DTPA, [^111In]DTPA-HQ4, [^111In]DTPA, or ^111In-Cl3 (100 nM, 10 μg). After subsequent washing with PBS, cells were imaged either for fluorescence (FLI, upper panel) or for radioactivity (RA, lower panel). NL = not labeled. b Calculated signal-to-background (S/B) ratio (FLI and RA) of the different compounds obtained from the dry ice assay. The S/B ratio was defined as the signal intensity obtained from the area of dead cells in the center of the well divided by the signal intensity obtained from an area of living cells of the same size in the periphery.

The test system of the next data set is 4T1 tumor bearing mice. Put plainly: Biodistribution (gamma counting of organs) in 4T1 tumor bearing mice, model of spontaneous tumor necrosis. It counts as in vivo, mouse. Conditions: 24 h after i.v. injection, 10 μg, 30-35 MBq. Here is the method: Approximately 1 × 10^5 4T1-luc2 cells, suspended in 15 μl PBS, were implanted bilateral and subcutaneously onto the upper back of nude mice. Tumors were grown until they reached a size of 6–7 mm in diameter which developed roughly after 1.5–2 weeks of tumor implantation.
(§2) To study the specificity of the radiolabeled HQ4-DTPA versus radiolabeled DTPA in vivo, 10 μg [^111In]DTPA-HQ4 (=10 nmol per mouse) or 10 μg [^111In]DTPA was injected i.v. into mice bearing 4T1-luc2 tumors (n = 3 and 4, respectively). The total injected dose (ID) in each mouse was determined in a dose-calibrator (VDC101, Veenstra Instruments, Joure, the Netherlands).
After the last imaging time point, mice were sacrificed and several tissues were excised, weighed, and counted for radioactivity (Wizard2 2470 automatic gamma scintillation counter, Perkin Elmer, USA) to determine the percentage of the injected dose per gram (%ID/g). The %ID/g was calculated as follows: (((MBq measured in tissue/injected dose) × 100 %) / weight of tissue).
Fig. 3 Optical imaging, SPECT, and biodistribution of [^111In]DTPA-HQ4 in 4T1 breast tumor bearing mice. a Whole body FLI (coronal view) obtained 6–72 h after tail vein injection of [^111In]DTPA-HQ4 (10 nmol, 30–35 MBq). […] Six, 24, 48, and 72 h after probe injection, mice (n = 3 per time point) were sacrificed and the organs, body fluids, and tumors were dissected, weighed, and measured for radioactivity in a gamma counter. At each time point, the amount of radioactivity in the organs is expressed as percentage of the injected dose divided by […] (%ID/w). d TUNEL-stained histological section of a representative 4T1 mouse breast tumor showing a large area of necrosis (brown).
Supplementary Figure 4: Biodistribution of [111In]DTPA. a) Biodistribution of the free chelate [111In]DTPA in 4T1 tumor bearing mice. 24h after probe injection (10 µg, 30-35 MBq), mice (n=4) were sacrificed and the organs, body fluids and tumors were dissected, weighted and measured for radioactivity in a gamma counter. […]

A short description of data set [3]: Radioactivity remaining in the whole mouse body after injection (clearance). It counts as in vivo. The note with it: for total injected dose retained in the body: whole mouse body. On the procedure: as §2
Supplementary Figure 4: Biodistribution of [111In]DTPA. a) Biodistribution of the free chelate [111In]DTPA in 4T1 tumor bearing mice. 24h after probe injection (10 µg, 30-35 MBq), mice (n=4) were sacrificed and the organs, body fluids and tumors were dissected, weighted and measured for radioactivity in a gamma counter. At each time point, the amount of radioactivity in each organ and tumor is expressed as percentage of the injected dose divided by the weight (%ID/w). b) Total amount of remaining [111In]DTPA-HQ4 and [111In]DTPA in the whole mouse body (% of ID) at the indicated time points 6 to 72h after probe injection.
as §1

As to `CC(C)=CCC[C@]1(C)C=Cc2c(O)c3c(c(CC=C(C)C)c2O1)O[C@]12C(=C[C@@H]4C[C@H]1C(C)(C)O[C@@]2(C/C=C(/C)C(=O)O)C4=O)C3=O` [GA, Gambogic acid], the IC50 – broadly, the point on the concentration scale where inhibition reaches its midpoint – with 4T1-luc2 cells [1] is around 6 µM.

Turning to `CCCNS(=O)(=O)c1cccc2c3c(ccc12)[N+](CCCCCC(=O)NCCOCCOCCNC(=O)CN(CCN(CCN(CC(=O)O)CC(=O)O)CC(=O)O)CC(=O)O)=C(/C=C/C=C/C=C1/N(CCCCS(=O)(=O)[O-])c2ccc4ccccc4c2C1(C)C)C3(C)C` [HQ4-DTPA], the “accumulation in the area of dead cells by fluorescence imaging” value with 4T1-luc2 cells [2] (FLI) was “strongly accumulated in the area of dead cells”.

In the case of `O=C([O-])CN(CCN(CC(=O)[O-])CC(=O)[O-])CCN(CC(=O)[O-])CC(=O)[O-].[111In+3].[H+].[H+]` [[^111In]DTPA], in the data set with 4T1 tumor bearing mice, the radioactivity in kidneys is given as 5.0 %ID/w, the radioactivity in liver came out at 0.6 %ID/w and the radioactivity in tumors is listed as 0.5 %ID/w. In addition, the “total injected dose retained in the body” value in data set [3] (24 h after injection) turned out to be 10%. In addition, the “total injected dose retained in the body” value in data set [3] (48 h after injection) is reported as 8%. Further, the “clearance rate relative to [111In]DTPA-HQ4” value in data set [3] (fold faster than [111In]DTPA-HQ4) is “about 8 fold”. In addition, in the data set with 4T1-luc2 cells [2], the “accumulation in the dead cells area by radioactivity (RA) measurement” value was “neither [^111In]DTPA nor free ^111In-Cl3 accumulated in the dead cells area”.

For `[Cl][In]([Cl])[Cl]` [^111In-Cl3, ^111indium-chloride], the “accumulation in the dead cells area by radioactivity (RA) measurement” value in the data set with 4T1-luc2 cells [2] was “neither [^111In]DTPA nor free ^111In-Cl3 accumulated in the dead cells area”.

(Values after publication PMC5093207, “Pre-clinical Evaluation of a Cyanine-Based SPECT Probe for Multimodal Tumor Necrosis Imaging” (Molecular Imaging and Biology, 2016).)
